Columns and labels:
[1] = system: transgenic soybean plants, Arabidopsis M335Y, event SDS-9866; experiment: Greenhouse testing of transgenic soybean plants, Arabidopsis M335Y; type: in vivo, Glycine max; conditions: soybean SDS-9866, 5 days after herbicide treatment, average of 8 T1
Text: Various methods for the production of stably transformed plants are well known in the art. Coumarone-derivative herbicide tolerant soybean (Glycine max) or corn (Zea mays) plants can be produced by a method described by Olhoft et al. (US patent 2009/0049567). Briefly, HPPD or HST encoding polynucleotides are cloned into a binary vector using standard cloning techniques as described by Sambrook et al. (Molecular cloning (2001) Cold Spring Harbor Laboratory Press). The final vector construct contains an HPPD or HST encoding sequence flanked by a promoter sequence (e.g. the ubiquitin promoter (PcUbi) sequence) and a terminator sequence (e.g. the nopaline synthase terminator (NOS) sequence) and a resistance marker gene cassette (e.g. AHAS) (FIG. 2). Optionally, the HPPD or HST gene can provide the means of selection. Agrobacterium-mediated transformation is used to introduce the DNA into soybean's axillary meristem cells at the primary node of seedling explants. After inoculation and co-cultivation with Agrobacteria, the explants are transferred to shoot induction medium without selection for one week. The explants are subsequently transferred to shoot induction medium with 1-3 μM imazapyr (Arsenal) for 3 weeks to select for transformed cells. Explants with healthy callus/shoot pads at the primary node are then transferred to shoot elongation medium containing 1-3 μM imazapyr until a shoot elongates or the explant dies. After regeneration, transformants are transplanted to soil in small pots, placed in growth chambers (16 hr day/8 hr night; 25° C. day/23° C. night; 65% relative humidity; 130-150 mE m−2 s−1) and subsequently tested for the presence of the T-DNA via Taqman analysis. After a few weeks, healthy, transgenic positive, single copy events are transplanted to larger pots and allowed to grow in the growth chamber. Transformation of corn plants is done by a method described by McElver and Singh (WO 2008/124495). Plant transformation vector constructs containing HPPD or HST sequences are introduced into maize immature embryos via Agrobacterium-mediated transformation. Transformed cells are selected in selection media supplemented with 0.5-1.5 μM imazethapyr for 3-4 weeks. Transgenic plantlets are regenerated on plant regeneration media and rooted afterwards. Transgenic plantlets are subjected to TaqMan analysis for the presence of the transgene before being transplanted to potting mixture and grown to maturity in greenhouse. Arabidopsis thaliana is transformed with HPPD or HST sequences by floral dip method as described by McElver and Singh (WO 2008/124495). Transgenic Arabidopsis plants are subjected to Tag Man analysis for analysis of the number of integration loci. Transformation of Oryza sativa (rice) are done by protoplast transformation as described by Peng et al. (U.S. Pat. No. 6,653,529)
Transgenic plants expressing heterologous HPPD or HST enzymes are tested for tolerance against coumarone-derivative herbicides in greenhouse experiments.
For post emergence treatment, the test plants are first grown to a height of 3 to 15 cm, depending on the plant habit, and only then treated with the herbicides. For this purpose, the test plants are either sown directly and grown in the same containers, or they are first grown separately and transplanted into the test containers a few days prior to treatment.
Depending on the species, the plants are kept at 10-25° C. or 20-35° C. The test period extends over 3 weeks. During this time, the plants are tended and their response to the individual treatments is evaluated. […] Tolerance to coumarone-derivative herbicides can also be assessed in Arabidopsis. In this case transgenic Arabidopsis thaliana plants are assayed for improved tolerance to coumarone-derivative herbicides in 48-well plates. Seeds are surface sterilized by stirring for 5 min in ethanol+water (70+30 by volume), rinsing one time with ethanol+water (70+30 by volume) and two times with a sterile, deionized water. […]

[2] = biological target: T1, Arabidopsis HPPD variant M335H, P336A, E363Q (Arabidopsis thaliana, UniProt P93836, E363Q/M335H/P336A); experiment: HPPD activity assay, Arabidopsis HPPD mutant M335H, P336A, E363Q; type: biochemical; conditions: normalized on Arabidopsis wild-type HPPD
T1 construct: PCR-based site directed mutagenesis of pEXP5-NT/TOPO®-AtHPPD is done; His6 (N); made in house; host or cells: E. coli BL21 (DE3)
Procedure: HPPD produces homogentisic acid and CO2 from 4-hydroxyphenylpyruvate (4-HPP) and O2. The activity assay for HPPD is based on the analysis of homogentisic acid by reversed phase HPLC.
The assay mixture can contain 150 mM potassium phosphate buffer pH 7.0, 50 mM L-ascorbic acid, 1 μM FeSO4 and 7 μg of purified enzyme in a total volume of 1 ml.
Inhibitors are dissolved in DMSO (dimethylsulfoxide) to a concentration of 20 mM or 0.5 mM, respectively. From this stock solution serial five-fold dilutions are prepared in DMSO, which are used in the assay. The respective inhibitor solution accounts for 1% of the assay volume. […] After a preincubation of 30 min the reaction is started by adding 4-HPP to a final concentration of 0.1 mM. The reaction is allowed to proceed for 120 min at room temperature. The reaction is stopped by addition of 100 μl of 4.5 M phosphoric acid.
Activities are normalized by setting the uninhibited enzyme activity to 100%. IC50 values are calculated using non-linear regression.
The assay mixture can contain 150 mM potassium phosphate buffer pH 7.0, 50 mM L-ascorbic acid, 100 μM Catalase (Sigma-Aldrich), 1 μM FeSO4 and 0.2 units of purified HPPD enzyme in a total volume of 505 μl. 1 unit is defined as the amount of enzyme that is required to produce 1 nmol of HGA per minute at 20° C.
Inhibitors are dissolved in DMSO (dimethylsulfoxide) to a concentration of 0.5 mM. […] IC50 values are calculated using non-linear regression. […]
Purified, mutant HPPD enzymes are obtained by the methods described above. […] Apparent michaelis constants (Km) and maximal reaction velocities (Vmax) are calculated by non-linear regression with the software GraphPad Prism 5 (GraphPad Software, La Jolla, USA) using a substrate inhibition model.
Field performance of the optimized HPPD enzyme, which is used as a herbicide tolerance trait may depend not only on its lack of sensitivity towards HPPD inhibiting herbicides but also on its activity. To assess the potential performance of a herbicide tolerance trait a tolerance index (TI) is calculated using the following formula: […]

T1 sequence (P93836 whole entry M335H/P336A/E363Q): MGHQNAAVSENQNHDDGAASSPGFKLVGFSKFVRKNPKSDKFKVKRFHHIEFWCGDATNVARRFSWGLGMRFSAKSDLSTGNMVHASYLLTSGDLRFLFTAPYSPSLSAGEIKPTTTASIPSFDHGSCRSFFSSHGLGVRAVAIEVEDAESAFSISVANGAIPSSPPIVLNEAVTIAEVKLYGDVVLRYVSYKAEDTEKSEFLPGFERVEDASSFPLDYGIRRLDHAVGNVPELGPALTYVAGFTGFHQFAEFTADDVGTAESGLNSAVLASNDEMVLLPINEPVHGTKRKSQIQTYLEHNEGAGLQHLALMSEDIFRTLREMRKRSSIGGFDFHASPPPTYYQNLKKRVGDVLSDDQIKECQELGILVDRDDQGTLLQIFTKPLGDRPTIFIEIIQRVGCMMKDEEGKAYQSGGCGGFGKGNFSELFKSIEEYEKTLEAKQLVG

## CC1(C)c2cccnc2C(O)=C(c2ccc(Cl)nc2Cl)S1(=O)=O [Inhibitor 2, 7-(2,6-dichloro-3-pyridyl)-5,5-dimethyl-6,6-dioxo-thiopyrano[4,3-b]pyridin-8-ol]
[1]; 2.5 g/ha
  Injury evaluation, scale of 1-100, bleaching phenotype: 4
[1]; 10 g/ha
  Injury evaluation, scale of 1-100, bleaching phenotype: 5
[1]; 40 g/ha
  Injury evaluation, scale of 1-100, bleaching phenotype: 10

## Cc1c(C(=O)c2cnn(C)c2O)ccc(S(C)(=O)=O)c1C1=NOCC1 [Topramezone, reference compound]
[1]; 6.25 g/ha
  Injury evaluation, scale of 1-100, bleaching phenotype: 4
[1]; 25 g/ha
  Injury evaluation, scale of 1-100, bleaching phenotype: 8
[1]; 100 g/ha
  Injury evaluation, scale of 1-100, bleaching phenotype: 23

## COCCOCc1c(Cl)ccc(C2=C(O)c3ncccc3C(C)(C)S2(=O)=O)c1Cl [Inhibitor 3, 7-[2,4-dichloro-3-(2-methoxyethoxymethyl)phenyl]-5,5-dimethyl-6,6-dioxo-thiopyrano[4,3-b]pyridin-8-ol]
[2]
  Normalized tolerance index TI: 0.3

## CC1=NOC(c2c(Cl)ccc(C3=C(O)c4ncccc4C(C)(C)S3(=O)=O)c2Cl)C1 (centres unmarked) [Inhibitor 1, 7-[2,4-dichloro-3-(3-methyl-4,5-dihydroisoxazol-5-yl)phenyl]-5,5-dimethyl-6,6-dioxo-thiopyrano[4,3-b]pyridin-8-ol]
[2]
  Normalized tolerance index TI: 5.5

Source: patent US20140357487A1, “PLANTS HAVING INCREASED TOLERANCE TO HERBICIDES” (BASF SE, priority 2011, published 2014)
